The compounds below were run against T1, hTLR9 (Homo sapiens, UniProt Q9NR96) (assay: HEK293-Blue-hTLR-9 cells assay (SEAP reporter, ODN2006 stimulation)). Settings: HEK293-Blue-hTLR9 cells, ODN2006, 20 hrs; 0.032 is the lowest tested concentration; read-out: HEK/hTLR9 IC50.
T1 sequence (Q9NR96 26-1032): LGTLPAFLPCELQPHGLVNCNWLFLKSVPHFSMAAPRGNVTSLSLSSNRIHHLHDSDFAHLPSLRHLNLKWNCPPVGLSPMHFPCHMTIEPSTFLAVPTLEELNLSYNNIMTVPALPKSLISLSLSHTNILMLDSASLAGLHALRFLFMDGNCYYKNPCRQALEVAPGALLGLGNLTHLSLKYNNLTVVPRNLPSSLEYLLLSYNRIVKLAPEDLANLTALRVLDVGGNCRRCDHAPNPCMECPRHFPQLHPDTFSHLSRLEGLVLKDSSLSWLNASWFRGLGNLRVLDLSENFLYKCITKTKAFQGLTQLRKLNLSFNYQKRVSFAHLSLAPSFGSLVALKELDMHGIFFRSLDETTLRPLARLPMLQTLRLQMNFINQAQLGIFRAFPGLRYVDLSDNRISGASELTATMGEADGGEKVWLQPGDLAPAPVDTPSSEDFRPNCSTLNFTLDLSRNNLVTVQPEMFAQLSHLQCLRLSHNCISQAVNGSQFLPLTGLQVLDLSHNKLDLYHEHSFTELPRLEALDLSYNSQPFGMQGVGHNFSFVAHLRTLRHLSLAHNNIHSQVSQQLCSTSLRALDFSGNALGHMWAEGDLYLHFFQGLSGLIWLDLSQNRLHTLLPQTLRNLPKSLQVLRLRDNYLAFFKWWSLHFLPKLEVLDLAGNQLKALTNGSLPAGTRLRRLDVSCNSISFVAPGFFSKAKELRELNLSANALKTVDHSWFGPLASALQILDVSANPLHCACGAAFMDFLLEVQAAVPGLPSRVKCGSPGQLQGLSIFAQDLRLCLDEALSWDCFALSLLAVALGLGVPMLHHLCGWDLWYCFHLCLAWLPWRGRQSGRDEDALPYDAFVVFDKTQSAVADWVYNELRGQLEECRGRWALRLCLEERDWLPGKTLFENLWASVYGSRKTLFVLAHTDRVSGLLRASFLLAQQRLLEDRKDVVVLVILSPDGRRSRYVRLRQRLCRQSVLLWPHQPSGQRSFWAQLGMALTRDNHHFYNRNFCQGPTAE
Assay type: cell-based
Description: The following tests were carried out in order to determine the activity of the compounds of formula (I) or (Ia) in HEK293-Blue-hTLR-7/8/9 cells assay.
HEK293-Blue-hTLR-9 cells assay:
A stable HEK293-Blue-hTLR-9 cell line was purchased from InvivoGen (Cat.#: hkb-htlr9, San Diego, California, USA). These cells were originally designed for studying the stimulation of human TLR9 by monitoring the activation of NF-κB. A SEAP (secreted embryonic alkaline phosphatase) reporter gene was placed under the control of the IFN-β minimal promoter fused to five NF-κB and AP-1-binding sites. The SEAP was induced by activating NF-κB and AP-1 via stimulating HEK-Blue hTLR9 cells with TLR9 ligands. Therefore the reporter expression was declined by TLR9 antagonist under the stimulation of a ligand, such as ODN2006 (Cat.#: tlrl-2006-1, Invivogen, San Diego, California, USA), for incubation of 20 hrs. The cell culture supernatant SEAP reporter activity was determined using QUANTI-Blue™ kit (Cat.#: rep-qb1, Invivogen, San Diego, California, USA) at a wavelength of 640 nm, a detection medium that turns purple or blue in the presence of alkaline phosphatase.
HEK293-Blue-hTLR9 cells were incubated at a density of 250,000∼450,000 cells/mL in a volume of 170 µL in a 96-well plate in Dulbecco's Modified Eagle's medium (DMEM) containing 4.5 g/L glucose, 50 U/mL penicillin, […], […], 2 mM L-glutamine, 10% (v/v) heat-inactivated fetal bovine serum with addition of 20 µL test compound in a serial dilution in the presence of final DMSO at 1% and 10 µL of 20uM ODN2006 in above DMEM, perform incubation under 37 °C in a CO2 incubator for 20 hrs. Then 20 µL of the supernatant from each well was incubated with 180 µL Quanti-blue substrate solution at 37 °C for 2 hrs and the absorbance was read at 620∼655 nm using a spectrophotometer. The signalling pathway that TLR9 activation leads to downstream NF-κB activation has been widely accepted, and therefore similar reporter assay was modified for evaluating TLR9 antagonist.

IC50 [µM]	Compound
0.051	5-[(2S,6R)-2-[[5-[3-(hydroxymethyl)piperazin-1-yl]isoindolin-2-yl]methyl]-6-methyl-morpholin-4-yl]quinoline-8-carbonitrile [Example 85]
0.098	C[C@@H]1CN(c2ccc3c(c2)CN(C[C@H]2CN(c4ccc(C#N)c5ncccc45)C[C@@H](C)O2)C3)C[C@@H](C)N1 (mixture of isomers) [Example 57, Trans-5-[(2R,6S)-2-methyl-6-[[5-[3,5-dimethylpiperazin-1-yl]isoindolin-2-yl]methyl]morpholin-4-yl]quinoline-8-carbonitrile]
0.055	C[C@@H]1CN(c2ccc(C#N)n3nccc23)C[C@H](CN2Cc3ccc(N4CCNCC4)cc3C2)O1 [Example 4, 4-[(2R,6S)-2-methyl-6-[(5-piperazin-1-ylisoindolin-2-yl)methyl]morpholin-4-yl]pyrazolo[1,5-a]pyridine-7-carbonitrile]
0.062	C[C@@H]1CN(c2ccc(C#N)n3nccc23)C[C@H](CN2Cc3ccc(C4CCNCC4)cc3C2)O1 [Example 8, 4-[(2R,6S)-2-methyl-6-[[5-(4-piperidyl)isoindolin-2-yl]methyl]morpholin-4-yl]pyrazolo[1,5-a]pyridine-7-carbonitrile]
0.064	C[C@@H]1CN(c2ccc(C#N)n3nccc23)C[C@H](CN2Cc3ccc(C4CCNC4)cc3C2)O1 (stereo partly drawn) [Example 9, 4-[(2R,6S)-2-methyl-6-[(5-pyrrolidin-3-ylisoindolin-2-yl)methyl]morpholin-4-yl]pyrazolo[1,5-a]pyridine-7-carbonitrile]
0.067	C[C@@H]1CN(c2ccc(C#N)n3nccc23)C[C@H](CN2CCc3cc(N4CCNCC4)ccc3C2)O1 [Example 10, 4-[(2R,6S)-2-methyl-6-[(6-piperazin-1-yl-3,4-dihydro-1H-isoquinolin-2-yl)methyl]morpholin-4-yl]pyrazolo[1,5-a]pyridine-7-carbonitrile]
0.06	C[C@@H]1CN(c2ccc(C#N)n3nccc23)C[C@H](CN2CCc3ccc(N4CCNCC4)cc3C2)O1 [Example 11, 4-[(2R,6S)-2-methyl-6-[(7-piperazin-1-yl-3,4-dihydro-1H-isoquinolin-2-yl)methyl]morpholin-4-yl]pyrazolo[1,5-a]pyridine-7-carbonitrile]
0.052	C[C@@H]1CN(c2ccc(C#N)c3nccnc23)C[C@H](CN2Cc3ccc(N4CCNCC4)cc3C2)O1 [Example 12, 8-[(2R,6S)-2-methyl-6-[(5-piperazin-1-ylisoindolin-2-yl)methyl]morpholin-4-yl]quinoxaline-5-carbonitrile]
0.054	C[C@@H]1CN(c2ccc(C#N)c3nccnc23)C[C@H](CN2CCc3cc(N4CCNCC4)ccc3C2)O1 [Example 13, 8-[(2R,6S)-2-methyl-6-[(6-piperazin-1-yl-3,4-dihydro-1H-isoquinolin-2-yl)methyl]morpholin-4-yl]quinoxaline-5-carbonitrile]
0.117	C[C@@H]1CN(c2ccc(C#N)n3ncc(F)c23)C[C@H](CN2CCc3cc(N4CCNCC4)ccc3C2)O1 [Example 14, 3-fluoro-4-[(2R,6S)-2-methyl-6-[(6-piperazin-1-yl-3,4-dihydro-1H-isoquinolin-2-yl)methyl]morpholin-4-yl]pyrazolo[1,5-a]pyridine-7-carbonitrile]
0.046	C[C@@H]1CN(c2ccc(C#N)n3nccc23)C[C@H](CN2CCc3cc(N4CCN(C)CC4)ccc3C2)O1 [Example 15, 4-[(2R,6S)-2-methyl-6-[[6-(4-methylpiperazin-1-yl)-3,4-dihydro-1H-isoquinolin-2-yl]methyl]morpholin-4-yl]pyrazolo[1,5-a]pyridine-7-carbonitrile]
0.082	C[C@@H]1CN(c2ccc(C#N)n3nccc23)C[C@H](CNCc2ccc(N3CCNCC3)cc2)O1 [Example 16, 4-[(2R,6S)-2-methyl-6-[[(4-piperazin-1-ylphenyl)methylamino]methyl]morpholin-4-yl]pyrazolo[1,5-a]pyridine-7-carbonitrile]
0.048	C[C@@H]1CN(c2ccc(C#N)n3nccc23)C[C@H](CN2Cc3ccc(N4CCN(C)CC4)cc3C2)O1 [Example 17, 4-[(2R,6S)-2-methyl-6-[[5-(4-methylpiperazin-1-yl)isoindolin-2-yl]methyl]morpholin-4-yl]pyrazolo[1,5-a]pyridine-7-carbonitrile]
0.048	C[C@@H]1CN(c2ccc(C#N)n3nccc23)C[C@H](CN2Cc3cc(N4CCNCC4)cnc3C2)O1 [Example 18, 4-[(2R,6S)-2-methyl-6-[(3-piperazin-1-yl-5,7-dihydropyrrolo[3,4-b]pyridin-6-yl)methyl]morpholin-4-yl]pyrazolo[1,5-a]pyridine-7-carbonitrile]
0.064	C[C@@H]1CN(c2ccc(C#N)c3ncccc23)C[C@H](CN2CCc3cc(N4CCNCC4)ccc3C2)O1 [Example 19, 5-[(2R,6S)-2-methyl-6-[(6-piperazin-1-yl-3,4-dihydro-1H-isoquinolin-2-yl)methyl]morpholin-4-yl]quinoline-8-carbonitrile]
0.048	C[C@@H]1CN(c2ccc(C#N)c3ncccc23)C[C@H](CN2Cc3cc(N4CCNCC4)cnc3C2)O1 [Example 20, 5-[(2R,6S)-2-methyl-6-[(3-piperazin-1-yl-5,7-dihydropyrrolo[3,4-b]pyridin-6-yl)methyl]morpholin-4-yl]quinoline-8-carbonitrile]
0.055	C[C@@H]1CN(c2ccc(C#N)c3ncccc23)C[C@H](CN2Cc3ccc(N4CCNCC4)cc3C2)O1 [Example 21, 5-[(2R,6S)-2-methyl-6-[(5-piperazin-1-ylisoindolin-2-yl)methyl]morpholin-4-yl]quinoline-8-carbonitrile]
0.075	C[C@@H]1CN(c2ccc(C#N)c3ncsc23)C[C@H](CN2Cc3ccc(N4CCNCC4)cc3C2)O1 [Example 23, 7-[(2R,6S)-2-methyl-6-[(5-piperazin-1-ylisoindolin-2-yl)methyl]morpholin-4-yl]-1,3-benzothiazole-4-carbonitrile]
0.081	C[C@@H]1CN(c2ccc(C#N)c3ncsc23)C[C@H](CN2CCc3cc(N4CCNCC4)ccc3C2)O1 [Example 24, 7-[(2R,6S)-2-methyl-6-[(6-piperazin-1-yl-3,4-dihydro-1H-isoquinolin-2-yl)methyl]morpholin-4-yl]-1,3-benzothiazole-4-carbonitrile]
0.063	C[C@@H]1CN(c2ccc(C#N)c3ncsc23)C[C@H](CN2Cc3cc(N4CCNCC4)cnc3C2)O1 [Example 25, 7-[(2R,6S)-2-methyl-6-[(3-piperazin-1-yl-5,7-dihydropyrrolo[3,4-b]pyridin-6-yl)methyl]morpholin-4-yl]-1,3-benzothiazole-4-carbonitrile]

Compound	IC50 [µM]
3-fluoro-4-[(2R,6S)-2-methyl-6-[(5-piperazin-1-ylisoindolin-2-yl)methyl]morpholin-4-yl]pyrazolo[1,5-a]pyridine-7-carbonitrile [Example 7]	0.091
C[C@@H]1CN(c2ccc(C#N)c3ncccc23)C[C@H](CNCc2ccccc2)O1 [ER-886509, reference compound]	2.08
